Measurements from US5424290A, “Biologically active peptides and uses therefor” (Magainin Pharmaceuticals Inc., priority 1992, dated 1995).
Residues, ends and D or L forms follow the SMILES beside them.

Experiments:
Type in all cases: cell-based
Candida albicans = experiment: Minimal Inhibitory Concentration, microtiter broth dilution assay; conditions: Mueller Hinton broth, 16-20 hours at 37° C., lowest concentration giving a clear well
Text: (§1) Table I, which follows, indicates the Minimal Inhibitory Concentration (MIC) in μg/ml of Peptides (SEQ ID NO:1) through (SEQ ID NO:4), (SEQ ID NO:6) through (SEQ ID NO:13), (SEQ ID NO:16), (SEQ ID NO:20), (SEQ ID NO:21) and (SEQ ID NO:23) against S. aureus strain ATCC 25923, P. aeruginosa strain ATCC 27853, E. coli strain 25922, and Candida albicans. The procedure for the antibacterial assay is based upon the guidelines of the National Committee for Clinical Laboratory Standards, Document M7-T2, Volume 8, No. 8, 1988. Stock solutions of the peptides hereinabove mentioned are prepared at a concentration of 512 μg/ml in sterile deionized distilled water and stored at […]. Each peptide is a C-terminal amide and may or may not be acetylated at the N-terminus. An acetyl group at the N-terminus is indicated by an X. The stock peptide solution is diluted in serial dilutions (1:2) down the wells of a microtiter plate so that the final concentrations of peptides in the wells are 0.25, 0.50, 1, 2, 4, 8, 16, 32, 64, 128, and 256 μg/ml. 1-5×10^5 CFUs/ml of either S. aureus ATCC 25923, E. coli ATCC 25922, P. aeruginosa ATCC 27853, or Candida albicans were added to the wells in full strength Mueller Hinton broth (BBL 11443) from a mid-log culture. The inoculum is standardized spectrophotometrically at 600 nm and is verified by colony counts. The plates are incubated for 16-20 hours at 37° C., and the minimal inhibitory concentration (MIC) for each peptide is determined. Minimal inhibitory concentration is defined as the lowest concentration of peptide which produces a clear well in the microtiter plate.

[1] = test system: P. aeruginosa strain ATCC 27853; experiment: Minimal Inhibitory Concentration, microtiter broth dilution antibacterial assay; conditions: P. aeruginosa ATCC 27853; Mueller Hinton broth; 16-20 hours at 37° C.; lowest concentration giving a clear well
Text: as §1

[2] = test system: S. aureus strain ATCC 25923; experiment: as above; conditions: S. aureus ATCC 25923; Mueller Hinton broth; 16-20 hours at 37° C.; lowest concentration giving a clear well
Text: as §1

E. coli ATCC 25922 = experiment: as above; conditions: Mueller Hinton broth, 16-20 hours at 37° C., lowest concentration giving a clear well
Text: as §1

| SMILES | Minimal Inhibitory Concentration C. albicans (Candida albicans) | Minimal Inhibitory Concentration P. aeruginosa [1] | Minimal Inhibitory Concentration S. aureus [2] | Minimal Inhibitory Concentration E. coli (E. coli ATCC 25922) |
| --- | --- | --- | --- | --- |
| CC[C@H](C)[C@H](NC(=O)CN)C(=O)NCC(=O)N[C@@H](CCCCN)C(=O)N[C@@H](Cc1ccccc1)C(=O)N[C@@H](CC(C)C)C(=O)N[C@@H](CCCCN)C(=O)N[C@@H](CCCCN)C(=O)N[C@@H](C)C(=O)N[C@@H](CCCCN)C(=O)N[C@@H](CCCCN)C(=O)N[C@@H](Cc1ccccc1)C(=O)NCC(=O)N[C@@H](CCCCN)C(=O)N[C@@H](C)C(=O)N[C@@H](Cc1ccccc1)C(=O)N[C@H](C(=O)N[C@@H](CCCCN)C(=O)N[C@H](C(=O)N[C@@H](CC(C)C)C(=O)N[C@@H](CCCCN)C(=O)N[C@@H](CCCCN)C(=O)N[C@@H](CCCNC(=N)N)C(N)=O)[C@@H](C)CC)C(C)C [(SEQ ID NO: 8)-NH2] (H-GIGKFLKKAKKFGKAFVKILKKR-NH2) | 64 µg/mL | 4 µg/mL | 16 µg/mL | – |
| CC[C@H](C)[C@H](NC(C)=O)C(=O)NCC(=O)N[C@@H](CCCCN)C(=O)N[C@@H](Cc1ccccc1)C(=O)N[C@@H](CC(C)C)C(=O)N[C@@H](CCCCN)C(=O)N[C@@H](CCCCN)C(=O)N[C@@H](C)C(=O)N[C@@H](CCCCN)C(=O)N[C@@H](CCCCN)C(=O)N[C@@H](Cc1ccccc1)C(=O)NCC(=O)N[C@@H](CCCCN)C(=O)N[C@@H](C)C(=O)N[C@@H](Cc1ccccc1)C(=O)N[C@H](C(=O)N[C@@H](CCCCN)C(=O)N[C@H](C(=O)N[C@@H](CC(C)C)C(=O)N[C@@H](CCCCN)C(=O)N[C@@H](CCCCN)C(N)=O)[C@@H](C)CC)C(C)C [X- (SEQ ID NO: 1)-NH2] (Ac-IGKFLKKAKKFGKAFVKILKK-NH2) | 128 µg/mL | – | 8 µg/mL | 8 µg/mL |
| CC[C@H](C)[C@H](N)C(=O)N[C@@H](CCCCN)C(=O)N[C@@H](CCCCN)C(=O)N[C@@H](Cc1ccccc1)C(=O)N[C@@H](CC(C)C)C(=O)N[C@@H](CCCCN)C(=O)N[C@@H](CCCCN)C(=O)N[C@@H](C)C(=O)N[C@@H](CCCCN)C(=O)N[C@@H](CCCCN)C(=O)N[C@@H](Cc1ccccc1)C(=O)NCC(=O)N[C@@H](CCCCN)C(=O)N[C@@H](CCCCN)C(=O)N[C@@H](Cc1ccccc1)C(=O)N[C@@H](CCCCN)C(=O)N[C@@H](CCCCN)C(=O)N[C@H](C(=O)N[C@@H](CC(C)C)C(=O)N[C@@H](CCCCN)C(=O)N[C@@H](CCCCN)C(N)=O)[C@@H](C)CC [(SEQ ID NO: 2)-NH2] (H-IKKFLKKAKKFGKKFKKILKK-NH2) | – | 8 µg/mL | – | 16 µg/mL |
| CC[C@H](C)[C@H](NC(=O)[C@H](C)NC(=O)[C@H](CCCCN)NC(=O)CNC(=O)[C@@H](NC(=O)[C@H](CCCCN)NC(=O)[C@H](CCCCN)NC(=O)[C@H](C)NC(=O)[C@H](CCCCN)NC(=O)[C@H](CCCCN)NC(=O)[C@H](CC(C)C)NC(=O)[C@@H](NC(=O)[C@H](CCCCN)NC(=O)CNC(=O)[C@@H](N)Cc1ccccc1)[C@@H](C)CC)[C@@H](C)CC)C(=O)N[C@H](C(=O)N[C@@H](CCCCN)C(=O)N[C@@H](Cc1ccccc1)C(=O)N[C@@H](CC(C)C)C(=O)N[C@@H](CCCCN)C(=O)N[C@@H](CCCCN)C(N)=O)C(C)C [(SEQ ID NO: 23)-NH2] (H-FGKILKKAKKIGKAIVKFLKK-NH2) | 128 µg/mL | – | 16 µg/mL | 32 µg/mL |
| CC[C@H](C)[C@H](NC(=O)CN)C(=O)N[C@H](C(=O)NCC(=O)N[C@@H](CCCCN)C(=O)N[C@@H](Cc1ccccc1)C(=O)N[C@@H](CC(C)C)C(=O)N[C@@H](CCCCN)C(=O)N[C@@H](CCCCN)C(=O)N[C@@H](C)C(=O)N[C@@H](CCCCN)C(=O)N[C@@H](CCCCN)C(=O)N[C@@H](Cc1ccccc1)C(=O)NCC(=O)N[C@@H](CCCCN)C(=O)N[C@@H](C)C(=O)N[C@@H](Cc1ccccc1)C(=O)N[C@H](C(=O)N[C@@H](CCCCN)C(=O)N[C@H](C(=O)N[C@@H](CC(C)C)C(=O)N[C@@H](CCCCN)C(=O)N[C@@H](CCCCN)C(N)=O)[C@@H](C)CC)C(C)C)[C@@H](C)CC [(SEQ ID NO: 16)-NH2] (H-GIIGKFLKKAKKFGKAFVKILKK-NH2) | 64 µg/mL | – | 4 µg/mL | 8 µg/mL |
| CC[C@H](C)[C@H](NC(=O)CN)C(=O)NCC(=O)N[C@@H](CCCCN)C(=O)N[C@@H](Cc1ccccc1)C(=O)N[C@@H](CC(C)C)C(=O)N[C@@H](CCCCN)C(=O)N[C@@H](CCCCN)C(=O)N[C@@H](C)C(=O)N[C@@H](CCCCN)C(=O)N[C@@H](CCCCN)C(=O)N[C@@H](Cc1ccccc1)C(=O)NCC(=O)N[C@@H](CCCCN)C(=O)N[C@@H](C)C(=O)N[C@@H](Cc1ccccc1)C(=O)N[C@H](C(=O)N[C@@H](CCCCN)C(=O)N[C@H](C(=O)N[C@H](C(=O)N[C@@H](CCCCN)C(=O)N[C@@H](CCCCN)C(N)=O)C(C)C)[C@@H](C)CC)C(C)C [(SEQ ID NO: 6)-NH2] (H-GIGKFLKKAKKFGKAFVKIVKK-NH2) | – | 16 µg/mL | 32 µg/mL | 16 µg/mL |
| CC[C@H](C)[C@H](NC(=O)CN)C(=O)NCC(=O)N[C@@H](CCCCN)C(=O)N[C@H](C(=O)N[C@@H](CC(C)C)C(=O)N[C@@H](CCCCN)C(=O)N[C@@H](CCCCN)C(=O)N[C@@H](C)C(=O)N[C@@H](CCCCN)C(=O)N[C@@H](CCCCN)C(=O)N[C@H](C(=O)NCC(=O)N[C@@H](CCCCN)C(=O)N[C@@H](C)C(=O)N[C@H](C(=O)N[C@H](C(=O)N[C@@H](CCCCN)C(=O)N[C@H](C(=O)N[C@@H](CC(C)C)C(=O)N[C@@H](CCCCN)C(=O)N[C@@H](CCCCN)C(N)=O)[C@@H](C)CC)C(C)C)[C@@H](C)CC)[C@@H](C)CC)[C@@H](C)CC [(SEQ ID NO: 4)-NH2] (H-GIGKILKKAKKIGKAIVKILKK-NH2) | 64 µg/mL | 4 µg/mL | 16 µg/mL | – |
| CC[C@H](C)[C@H](NC(=O)CNC(=O)[C@H](CCCNC(=N)N)NC(=O)[C@@H](N)CCCNC(=N)N)C(=O)NCC(=O)N[C@@H](CCCCN)C(=O)N[C@@H](Cc1ccccc1)C(=O)N[C@@H](CC(C)C)C(=O)N[C@@H](CCCCN)C(=O)N[C@@H](CCCCN)C(=O)N[C@@H](C)C(=O)N[C@@H](CCCCN)C(=O)N[C@@H](CCCCN)C(=O)N[C@@H](Cc1ccccc1)C(=O)NCC(=O)N[C@@H](CCCCN)C(=O)N[C@@H](C)C(=O)N[C@@H](Cc1ccccc1)C(=O)N[C@H](C(=O)N[C@@H](CCCCN)C(=O)N[C@H](C(=O)N[C@@H](CC(C)C)C(=O)N[C@@H](CCCCN)C(=O)N[C@@H](CCCCN)C(=O)NCC(N)=O)[C@@H](C)CC)C(C)C [(SEQ ID NO: 13)-NH2] (H-RRGIGKFLKKAKKFGKAFVKILKKG-NH2) | 64 µg/mL | 4 µg/mL | – | – |
